# Laboratory results as given in patent US20230279018A1, “AP[…] INHIBITION” (priority 2020, published 2023).
# pKd: −log10 of the molar value.
# Target: T1, PfcFRS (Plasmodium falciparum, UniProt Q8I246)
# T1 sequence (Q8I246 1-575): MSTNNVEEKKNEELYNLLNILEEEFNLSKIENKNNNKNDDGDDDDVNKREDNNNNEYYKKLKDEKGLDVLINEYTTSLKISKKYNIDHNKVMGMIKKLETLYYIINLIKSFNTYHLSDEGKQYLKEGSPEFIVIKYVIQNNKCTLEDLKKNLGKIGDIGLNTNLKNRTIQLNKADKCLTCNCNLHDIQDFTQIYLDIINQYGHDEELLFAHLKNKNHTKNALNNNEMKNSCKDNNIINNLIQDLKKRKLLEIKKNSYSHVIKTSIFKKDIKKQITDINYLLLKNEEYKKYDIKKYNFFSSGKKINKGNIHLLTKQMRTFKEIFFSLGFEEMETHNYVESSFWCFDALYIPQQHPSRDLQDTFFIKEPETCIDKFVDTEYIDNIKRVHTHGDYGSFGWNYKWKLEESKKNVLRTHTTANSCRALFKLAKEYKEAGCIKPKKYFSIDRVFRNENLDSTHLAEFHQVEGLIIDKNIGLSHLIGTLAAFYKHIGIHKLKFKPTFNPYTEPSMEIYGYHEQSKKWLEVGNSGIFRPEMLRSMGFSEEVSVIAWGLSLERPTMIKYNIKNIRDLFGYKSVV
# T1 sequence (Q8IIW2 1-623 partner): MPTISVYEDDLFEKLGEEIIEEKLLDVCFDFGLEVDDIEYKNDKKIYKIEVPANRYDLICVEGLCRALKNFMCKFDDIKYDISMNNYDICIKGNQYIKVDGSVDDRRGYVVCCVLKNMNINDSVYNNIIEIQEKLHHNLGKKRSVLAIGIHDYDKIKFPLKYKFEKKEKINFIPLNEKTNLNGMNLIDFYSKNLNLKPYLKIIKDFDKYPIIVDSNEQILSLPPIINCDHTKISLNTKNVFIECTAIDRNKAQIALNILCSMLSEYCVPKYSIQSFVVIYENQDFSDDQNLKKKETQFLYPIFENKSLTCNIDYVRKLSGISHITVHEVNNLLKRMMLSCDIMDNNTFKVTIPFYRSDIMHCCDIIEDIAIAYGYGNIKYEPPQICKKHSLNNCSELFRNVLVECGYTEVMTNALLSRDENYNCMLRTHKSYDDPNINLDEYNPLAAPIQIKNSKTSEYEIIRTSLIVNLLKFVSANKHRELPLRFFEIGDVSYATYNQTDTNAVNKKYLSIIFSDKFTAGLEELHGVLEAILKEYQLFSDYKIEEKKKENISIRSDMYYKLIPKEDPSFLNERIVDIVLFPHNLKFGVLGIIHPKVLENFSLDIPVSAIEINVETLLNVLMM
# Experiment: Surface Plasmon Resonance binding, PfcFRS
# Conditions: SPR, 25° C., PBS pH 7.4, 5% DMSO; read-out: cFRS Kd, Pf
# Description: Surface Plasmon Resonance experiments to evaluate the binding of Compound 1 to proteins were carried out on a Biacore T200 instrument (GE Healthcare) at 25° C. The binding experiments were performed in buffer 10 mM phosphate buffered saline (PBS), pH 7.4, containing 5% dimethyl sulfoxide (DMSO). The flow system was primed with the running buffer before the initiation of the experiment. Both PfcFRS and HscFRS were immobilized to Sensor Chip CM5 by standard amine coupling chemistry using N-hydroxysuccinimide (NHS) and ethyl(dimethylaminopropyl) carbodiimide (EDC), to an immobilization level of approximately 1500 RU. The binding experiments were carried out in a single cycle kinetics mode. Compound 1 was serially diluted in running buffer, and injected at a flow rate of 60 μl min^−1 across both surface for 60 s and dissociation were set up for 120 s. The analysis was done using Biaevaluation (GE Healthcare) and GraphPad Prism 7 software (GraphPad Software Inc, USA). […] The equilibrium dissociation constants (Kd) were determined by plotting the measured response (Req) as a function of the analyte concentration. […] Measured sensograms illustrating the binding of various concentrations of Compound 1 to the protein are shown in FIG. 3B (PfcFRS) and 3C (HscFRS) including both the measured data and the 1:1 binding model fit.
smiles,measurement,value
"COC[C@@H]1[C@H](c2ccc(C#Cc3ccccc3)cc2)[C@@H]2CN(C(=O)Nc3ccc(OC4CC4)cc3)C[C@@H](O)[C@@H](O)CN12 [Compound 1, (3S,4R,8R,9R,10S)—N-(4-cyclopropoxyphenyl)-3,4-dihydroxy-10-(methoxymethyl)-9-(4-(phenylethynyl)phenyl)-1,6-diazabicyclo[6.2.0]decane-6-carboxamide]",pKd,8.40
